Source: ChEMBL document CHEMBL1148525, “Discovery of huperzine A-tacrine hybrids as potent inhibitors of human cholinesterases targeting their midgorge recognition sites” (J Med Chem, 2006)

How the values were obtained:
Cholinesterase = Cholinesterase (Homo sapiens, UniProt P06276)
Description: Inhibition of human BuChE

Acetylcholinesterase = Acetylcholinesterase (Homo sapiens, UniProt P22303)
Acetylcholinesterase, sequence (P22303 whole entry): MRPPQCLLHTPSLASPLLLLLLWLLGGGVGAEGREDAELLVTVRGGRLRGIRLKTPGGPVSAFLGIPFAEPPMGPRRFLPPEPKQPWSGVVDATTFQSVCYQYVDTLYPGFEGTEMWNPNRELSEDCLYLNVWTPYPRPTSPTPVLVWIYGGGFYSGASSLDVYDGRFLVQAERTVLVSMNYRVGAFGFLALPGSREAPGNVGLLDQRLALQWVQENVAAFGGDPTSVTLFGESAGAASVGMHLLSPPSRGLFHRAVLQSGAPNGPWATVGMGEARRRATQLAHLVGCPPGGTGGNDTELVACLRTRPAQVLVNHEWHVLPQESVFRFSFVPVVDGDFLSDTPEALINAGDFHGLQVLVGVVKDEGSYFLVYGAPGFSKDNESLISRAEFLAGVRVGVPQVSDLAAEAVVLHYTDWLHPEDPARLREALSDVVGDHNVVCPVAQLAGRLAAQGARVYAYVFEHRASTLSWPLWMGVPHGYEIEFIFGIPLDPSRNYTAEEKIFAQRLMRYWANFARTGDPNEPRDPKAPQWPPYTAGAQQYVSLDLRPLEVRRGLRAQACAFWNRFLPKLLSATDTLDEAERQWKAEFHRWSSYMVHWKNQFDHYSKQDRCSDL

Cholinesterase, sequence (P06276 whole entry): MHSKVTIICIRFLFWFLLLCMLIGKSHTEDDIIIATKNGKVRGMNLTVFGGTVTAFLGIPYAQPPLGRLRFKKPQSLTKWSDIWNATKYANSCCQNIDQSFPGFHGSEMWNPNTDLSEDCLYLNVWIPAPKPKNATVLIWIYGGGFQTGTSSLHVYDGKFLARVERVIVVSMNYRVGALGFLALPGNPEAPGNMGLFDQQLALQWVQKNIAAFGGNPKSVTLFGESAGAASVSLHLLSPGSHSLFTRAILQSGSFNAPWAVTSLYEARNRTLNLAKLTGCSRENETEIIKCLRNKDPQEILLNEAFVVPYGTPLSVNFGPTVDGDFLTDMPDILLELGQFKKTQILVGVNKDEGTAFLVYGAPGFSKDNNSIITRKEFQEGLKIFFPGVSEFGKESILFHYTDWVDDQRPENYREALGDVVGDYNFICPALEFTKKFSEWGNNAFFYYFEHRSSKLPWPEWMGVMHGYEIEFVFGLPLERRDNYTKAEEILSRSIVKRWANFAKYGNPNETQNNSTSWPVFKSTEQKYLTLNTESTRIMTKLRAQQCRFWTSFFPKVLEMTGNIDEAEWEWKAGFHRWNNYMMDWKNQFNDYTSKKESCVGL

C/C=C1\[C@H]2C=C(C)C[C@]1(N)c1ccc(=O)[nH]c1C2 [HUPERZINE A]
Ki (Cholinesterase): > 1000 nM

C/C=C1\C2C=C(C)C[C@]1(N)CC(NCCCCCCCNc1c3c(nc4ccccc14)CCCC3)C2 (stereo not given in full)
Ki (Acetylcholinesterase): 15.7 nM
Ki (Cholinesterase): 30.8 nM

C/C=C1\C2C=C(C)C[C@]1(N)CC(NCCCCCCCNc1c3c(nc4ccccc14)CCCC3)C2(C)C (stereo not given in full)
Ki (Acetylcholinesterase): 16.5 nM
Ki (Cholinesterase): 20.8 nM
